According to patent US20130273649A1, “Culture medium for pluripotent stem cells” (UNIVERSITY OF SOUTHERN CALIFORNIA, priority 2012, published 2013):

Legend:
[1] = test system: CD1 EpiSCs; experiment: Clonogenicity: colony formation after single-cell deposition of EpiSCs; type: cell-based, mouse; settings: 96-well plate, CHIR only
Description: (A) Representative phase-contrast images of CD1 mouse EpiSCs cultured in the indicated conditions. […] (B) Phase-contrast image showing differentiating CD1 mouse EpiSCs at the 2nd passage in GMEM/10% FBS with 2 μM XAV. (C) CD1 mouse EpiSCs were cultured in CHIR/XAV for 7 passages and were subsequently immunostained with indicated antibodies against pluripotency markers. (D) Numbers of undifferentiated colonies formed by day 9 after single-cell deposition of CD1 EpiSCs into 0.1% gelatin-coated 96-well plates and cultured in the conventional mouse ESC medium supplemented with the indicated small molecules or cytokines Results are shown as mean±s.d. of six biological replicates. (E) De novo derivation of mouse EpiSCs. Epiblast tissue (outlined in dashed line) of the E5.75 CD1 mouse embryo was dissected and cultured in CHIR/XAV. The outgrowth formed from the plated epiblast (middle panel) was disaggregated to establish a stable EpiSC line (right panel). Thirteen […] established from 13 plated CD1 mouse embryos. Scale bars, 50 μ[…]). See also FIG. 8. We compared the clonogenicity of EpiSCs cultured in different conditions. […] EpiSC colonies formed in CHIR/XAV were readily expanded to establish stable cell lines. […] As expected, in the CHIR/XAV condition, EpiSCs were readily derived from embryonic day (E) 5.75 embryos of CD1 and 129SvE mice (FIGS. 1E and 8B). […]

[2] = test system: Axin1; experiment: Western blot of Axin1 in mouse EpiSCs; type: cell-based; settings: CD1 mouse EpiSCs treated 12 h
Description: (A) TOPFlash™ assay in CD1 mouse EpiSCs treated with the indicated inhibitors for 12 hours. Data represent mean±s.d. of three biological replicates. (B) Representative phase contrast images of CD1 mouse EpiSCs cultured in the indicated conditions for 7 days. (C) Western blot analysis of CD1 mouse EpiSCs treated with the indicated inhibitors for 12 h. (D) qRT-PCR analysis of Axin1 and Axin2 mRNA levels in CD1 mouse EpiSCs stably transfected with Axin1 shRNA or Axin2 shRNA. Data represent mean±s.d. of three biological replicates. (E) Colony assay on CD1 mouse EpiSCs stably transfected with scramble, Axin1, or Axin2 shRNAs. Cells were plated onto a 6-well plate at a density of 5,000 cells/well and cultured in CHIR/IWR-1. Colonies were counted 7 days after plating. Data represent the total combined numbers of colonies from two independent experiments in which each shRNA-transfected group was cultured in one well of a 6-well plate. (F) Representative phase contrast images of CD 1 mouse EpiSCs stably transfected with the indicated shRNAs and cultured in CHIR/IWR-1 for 7 days. (G) Western blot analysis of CD1 mouse EpiSCs overexpressing Flag-tagged Axin1 or Axin2. (H) Representative phase contrast images of CD1 mouse EpiSCs overexpressing Axin1 or Axin2 and cultured in CHIR for 7 days. Axin2-overexpressing EpiSCs could be continually passaged in CHIR alone. Scale bars, 50 μm (B, F and H)
Next, we investigated the mechanism by which CHIR/XAV promotes EpiSC self-renewal. By inhibiting GSK3 phosphorylation of β-catenin, CHIR stabilizes β-catenin, which then trans-locates to the nucleus and forms complexes with DNA-binding proteins, including TCFs, to activate transcription (Logan and Nusse, 2004). […] Axin has two isoforms, Axin1 and Axin2. […] The expression level of Axin2, but not Axin1, was also elevated by CHIR treatment (FIG. 4C), an outcome consistent with previous findings that Axin2 is a direct downstream target of Wnt/β-catenin signaling (Jho et al., 2002). […]

SMILES	undifferentiated colony formation from single EpiSC [1]	amount of Axin1 protein [2]
Cc1c[nH]c(-c2cnc(NCCNc3ccc(C#N)cn3)nc2-c2ccc(Cl)cc2Cl)n1 [CHIR99021, 6-((2-((4-(2,4-Dichlorophenyl)-5-(4-methyl-1H-imidazol-2-yl)pyrimidin-2-yl)amino)ethyl)amino)nicotinonitrile]	No undifferentiated colonies formed	not Axin1
Oc1nc(-c2ccc(C(F)(F)F)cc2)nc2c1CSCC2 [XAV939, 3,5,7,8-Tetrahydro-2-[4-(trifluoromethyl)phenyl]-4H-thiopyrano[4,3-d]pyrimidin-4-one]		significantly increased
